viability, Activity and Drug uptake data for three molecules are collected here from ChEMBL document CHEMBL5316331, “Modulating Cytotoxicity with Lego-like Chemistry: Upgrading Mitochondriotropic Antioxidants with Prototypical Cationic Carrier Bricks” (J Med Chem, 2023).

Active and inactive are the calls of the source. The calls are words filed in the database; no cut-off is given here. A value given as a limit tells only on which side of the number the result lay.

Data set [1] in a line: Cytotoxicity against human SH-SY5Y cells assessed as cell viability incubated for 24 hrs. Type of data set: toxicity, cell-based. The following applies: read-out: Activity.
Data set [2] is described as follows: Cytotoxicity against human HepG2 cells assessed as cell viability incubated for 24 hrs. The data set is classed as toxicity, cell-based. Particulars: read-out: Activity.
The test system of data set [3] is SH-SY5Y. Nature of the data set: Cytotoxicity against human SH-SY5Y cells at > 10 uM incubated for 48 hrs. Type of data set: toxicity, cell-based.
Data set [4] deals with SH-SY5Y. As to the kind of experiment: Cytotoxicity against human SH-SY5Y cells assessed as increase in cell viability at 10 to 100 uM incubated for 24 hrs. Type of data set: toxicity, cell-based. Particulars: dose 10-100 µM.
The test system of data set [5] is HepG2. Nature of the data set: Cytotoxicity against human HepG2 cells assessed as increase in cell viability at 10 to 100 uM incubated for 24 hrs. Type of data set: toxicity, cell-based. The following applies: hepg2, 24 h, dose 10-100 µM.
Data set [6] is described as follows: Drug uptake in C57BL/6J mouse liver mitochondria at 5 uM in presence of rotenone by UPLC analysis. Type of data set: ADME.
A short description of data set [7]: Drug uptake in C57BL/6J mouse liver mitochondria at 5 uM in presence of succinate by UPLC analysis. Type of data set: ADME.
A short description of data set [8]: Drug uptake in C57BL/6J mouse liver mitochondria at 5 uM in presence of FCCP by UPLC analysis. The data set is classed as ADME.
The test system of data set [9] is SH-SY5Y. As to the kind of experiment: Antioxidant activity against human SH-SY5Y cells assessed as effect on cellular OCR at 10 uM incubated for 24 hrs followed by addition of oligomycin/FCCP/antimycin A /rotenone by Cell Mito stress assay based seahorse XF96 flux analyzer. The data set is classed as functional.
The subject of data set [10] is SH-SY5Y. Nature of the data set: Antioxidant activity against human SH-SY5Y cells assessed as effect on cellular OCR at 50 uM incubated for 24 hrs followed by addition of oligomycin/FCCP/antimycin A /rotenone by Cell Mito stress assay based seahorse XF96 flux analyzer. The data set is classed as functional.
Data set [11] has as its system SH-SY5Y. Nature of the data set: Neuroprotective activity against H2O2-induced human SH-SY5Y cells assessed as increase in cell viability at 10 uM preincubated for 30 mins followed by H2O2 addition and measured after 24 hrs by SRB assay. The data set is classed as functional, cell-based. The following applies: time 24.5 hrs. In general terms: In SRB staining, fixed cells bind dye roughly in proportion to their protein.

Data set [12] concerns SH-SY5Y. Nature of the data set: Neuroprotective activity against H2O2-induced human SH-SY5Y cells assessed as increase in cell viability at 50 uM preincubated for 30 mins followed by H2O2 addition and measured after 24 hrs by SRB assay. Type of data set: functional, cell-based. Particulars: time 24.5 hrs.
In data set [13] the test system is SH-SY5Y. Nature of the data set: Cytotoxicity against human SH-SY5Y cells incubated for 48 hrs. The data set is classed as toxicity, cell-based.
For data set [14], the system named is SH-SY5Y. Nature of the data set: Antioxidant activity against human SH-SY5Y cells assessed as increase in basal respiration at 10 uM incubated for 24 hrs followed by addition of oligomycin/FCCP/antimycin A /rotenone by Cell Mito stress assay based seahorse XF96 flux analyzer. Type of data set: functional.
Data set [15] relates to SH-SY5Y. As to the kind of experiment: Antioxidant activity against human SH-SY5Y cells assessed as increase in maximal respiration at 10 uM incubated for 24 hrs followed by addition of oligomycin/FCCP/antimycin A /rotenone by Cell Mito stress assay based seahorse XF96 flux analyzer. The data set is classed as functional.
Data set [16] concerns SH-SY5Y. As to the kind of experiment: Antioxidant activity against human SH-SY5Y cells assessed as increase in ATP production-linked respiration at 10 uM incubated for 24 hrs followed by addition of oligomycin/FCCP/antimycin A /rotenone by Cell Mito stress assay based seahorse XF96 flux analyzer. Type of data set: functional.
The subject of data set [17] is SH-SY5Y. As to the kind of experiment: Antioxidant activity against human SH-SY5Y cells assessed as increase in basal respiration at 50 uM incubated for 24 hrs followed by addition of oligomycin/FCCP/antimycin A /rotenone by Cell Mito stress assay based seahorse XF96 flux analyzer. Type of data set: functional.
Data set [18] concerns SH-SY5Y. As to the kind of experiment: Antioxidant activity against human SH-SY5Y cells assessed as increase in maximal respiration at 50 uM incubated for 24 hrs followed by addition of oligomycin/FCCP/antimycin A /rotenone by Cell Mito stress assay based seahorse XF96 flux analyzer. The data set is classed as functional.
The subject of data set [19] is SH-SY5Y. Nature of the data set: Antioxidant activity against human SH-SY5Y cells assessed as increase in ATP production-linked respiration at 50 uM incubated for 24 hrs followed by addition of oligomycin/FCCP/antimycin A /rotenone by Cell Mito stress assay based seahorse XF96 flux analyzer. The data set is classed as functional.
Data set [20] relates to SH-SY5Y. As to the kind of experiment: Antioxidant activity against human SH-SY5Y cells assessed as increase in spare respiratory capacity at 10 uM incubated for 24 hrs followed by addition of oligomycin/FCCP/antimycin A /rotenone by Cell Mito stress assay based seahorse XF96 flux analyzer. The data set is classed as functional.
Data set [21] concerns SH-SY5Y. As to the kind of experiment: Antioxidant activity against human SH-SY5Y cells assessed as increase in spare respiratory capacity at 50 uM incubated for 24 hrs followed by addition of oligomycin/FCCP/antimycin A /rotenone by Cell Mito stress assay based seahorse XF96 flux analyzer. Type of data set: functional.
For data set [22], the system named is SH-SY5Y. Nature of the data set: Antioxidant activity against human SH-SY5Y cells assessed as increase in basal ECAR at 10 uM incubated for 24 hrs followed by addition of oligomycin/FCCP/antimycin A /rotenone by Cell Mito stress assay based seahorse XF96 flux analyzer. The data set is classed as functional.
Data set [23] has as its system SH-SY5Y. As to the kind of experiment: Antioxidant activity against human SH-SY5Y cells assessed as increase in basal OCR at 10 uM incubated for 24 hrs followed by addition of oligomycin/FCCP/antimycin A /rotenone by Cell Mito stress assay based seahorse XF96 flux analyzer. The data set is classed as functional.
Data set [24] relates to SH-SY5Y. As to the kind of experiment: Effect on cell mitochondrial mass in human SH-SY5Y cells assessed as reduction on mitochondrial mass at 50 uM incubated for 24 hrs by mito-tracker green dye based flow cytometry. The data set is classed as functional. Also on record: scale not given: the % may be the effect or the level left.
Data set [25] relates to SH-SY5Y. As to the kind of experiment: Effect on cell morphology in human SH-SY5Y cells assessed as reduction in cell body at 50 uM incubated for 24 hrs by Phase-contrast microscopy. Type of data set: functional, cell-based.
The subject of data set [26] is SH-SY5Y. Nature of the data set: Effect on cell morphology in human SH-SY5Y cells assessed as reduction in neurite at 50 uM incubated for 24 hrs by Phase-contrast microscopy. Type of data set: functional, cell-based.
Data set [27] has as its system SH-SY5Y. As to the kind of experiment: Effect on cell death pathway in human SH-SY5Y cells assessed as increase in early apoptotic cells at 50 uM incubated for 24 hrs by Annexin V-FITC/PI staining based microscopy. Type of data set: functional.
In data set [28] the test system is SH-SY5Y. As to the kind of experiment: Effect on cell death pathway in human SH-SY5Y cells assessed as increase in late apoptotic cells at 50 uM incubated for 24 hrs by Annexin V-FITC/PI staining based microscopy. Type of data set: functional.
In data set [29] the test system is SH-SY5Y. Nature of the data set: Effect on cell death pathway in human SH-SY5Y cells assessed as increase in necrotic cells at 50 uM incubated for 24 hrs by Annexin V-FITC/PI staining based microscopy. Type of data set: functional.
Data set [30] relates to SH-SY5Y. Nature of the data set: Effect on cell morphology in human SH-SY5Y cells assessed as reduction in cell body at 100 uM incubated for 24 hrs by Phase-contrast microscopy. The data set is classed as functional, cell-based.
The test system of data set [31] is SH-SY5Y. Nature of the data set: Effect on cell morphology in human SH-SY5Y cells assessed as reduction in neurite at 100 uM incubated for 24 hrs by Phase-contrast microscopy. The data set is classed as functional, cell-based.
Data set [32] concerns SH-SY5Y. Nature of the data set: Effect on cell death pathway in human SH-SY5Y cells assessed as increase in early apoptotic cells at 100 uM incubated for 24 hrs by Annexin V-FITC/PI staining based microscopy. The data set is classed as functional.
In data set [33] the test system is SH-SY5Y. As to the kind of experiment: Effect on cell death pathway in human SH-SY5Y cells assessed as increase in late apoptotic cells at 100 uM incubated for 24 hrs by Annexin V-FITC/PI staining based microscopy. Type of data set: functional.
In data set [34] the test system is SH-SY5Y. As to the kind of experiment: Effect on cell death pathway in human SH-SY5Y cells assessed as increase in necrotic cells at 100 uM incubated for 24 hrs by Annexin V-FITC/PI staining based microscopy. Type of data set: functional.

With `CS(=O)(=O)[O-].Cn1cc[n+](CCCCCCCCCCNC(=O)/C=C/c2ccc(O)c(O)c2)c1`, the viability at 24 h in data set [1] and in data set [2] was at least 85% throughout. Besides, the Activity entry in [3] was “Toxic”; in [4], “Non-Toxic”; in data set [5], “Non-Toxic”. The Drug uptake entry in [6] is “Not Active”; in data set [7] it was ~ 25%; in data set [8] it was “Active”. In addition, the outcome in data set [9], in data set [10], in data set [11] and in [12] was inactive.
As to `CS(=O)(=O)[O-].Cc1cc[n+](CCCCCCCCCCNC(=O)/C=C/c2ccc(O)c(O)c2)cc1`, the viability at 24 h in [1] and in [2] was at least 85% in each case. The Activity result in data set [13], in [4] and in [5] was “Non-Toxic” throughout. Also, the Drug uptake result was “Not Active” in data set [6], ~ 25% in data set [7] and “Active” in [8]. Moreover, the result in data set [14], in data set [15], in data set [16], in data set [17], in data set [18] and in data set [19] was Active. The outcome in data set [20], in data set [21], in data set [22] and in [23] was Active. For the same molecule, the outcome in data set [11] and in [12] was inactive.
Take `N#CC(C#N)=NNc1cccc(Cl)c1` [CARBONYL CYANIDE M-CHLOROPHENYLHYDRAZONE]: in [24], the Activity is reported as 77.4%. Further, the outcome in [25], in data set [26], in data set [27], in [28], in data set [29] and in data set [30] was Active. For the same molecule, the outcome in [31], in [32], in data set [33] and in data set [34] was Active.
